# pIC50: −log10 of the molar value. Where a SMILES comes first, the peptide text is derived from it. Where no end group is shown, it is not given here.
# Tests used:
# [1] = test system: HepG2 Cancer Cells (Human hepatocellular carcinoma); assay: MTT cytotoxicity, HepG2; assay type: cell-based; conditions: HepG2, 24 hours incubation
# Source text: (§1) The MTT assay is a colorimetric method for measuring the activity of enzymes in living cells that reduces Thiazolyl blue tetrazolium bromide (MTT) to formazan dyes showing a purple color. In this embodiment, a colorimetric 3-(4.5-dimethylthiazol-2-yl)-2.5-diphenyltetrazodium bromide (MTT) viability assay was used to assess the in vitro cytotoxicity of oncolytic peptides.
# (§2) The half inhibition concentration (IC50) is the concentration required by the oncolytic peptides to reach fifty percent inhibition. In one embodiment, the oncolytic peptides were used for IC50 test via MTT colorimetric assay.
# (§3) All cancer cell lines were seeded in a 96-well plate with a concentration of 5000-8000 cells/100 μl/well and incubated for 24 hrs. After medium was removed, 100 μl fresh medium containing peptide (ranging from 50 μM to 0.8 μM) was added to the wells. Following 24 hours incubation, fresh medium with MTT (0.5 mg/ml) was replaced and incubated for 3 hours. After medium/MTT was removed, DMSO was added at 100 μl for dissolving the formazan crystal. Cell survival rate was calculated by measuring the absorbance at 540 nm using a Multi-labeled Microplate Reader (Sunrise™, TECAN).
# RBC (Human blood cell) = assay: Cytotoxicity, RBC; assay type: cell-based
# Source text: as §2
# [2] = test system: SAS (Human tongue carcinoma); assay: MTT cytotoxicity, SAS; assay type: cell-based; conditions: 24 hours incubation
# Source text: as §1, §2, §3
# [3] = test system: MN-11 (Murine fibrosarcoma); assay: MTT cytotoxicity, MN-11; assay type: cell-based; conditions: MN-11, 24 hours incubation
# Source text: as §1, §2
# (§4) Human lung cancer lines PC9 and A549 and murine pancreatic cancer cell line Panc02 were cultured in RPMI medium supplemented with 10% fetal bovine serum and antibiotic in this embodiment. Additionally, murine hepatoma cell line Hepa 1-6, murine melanoma cell line B16-F10, murine fibrosarcoma cell line MN-11, murine mammary cancer cell line E0771 and human diploid fibroblast (HFW) were cultured in DMEM medium supplemented with 10% fetal bovine serum and antibiotic. Cells were cultured in a humidified incubator containing 5% CO2 at 37° C.
# as §3
# [4] = test system: C9 (Human oral cancer cell); assay: MTT cytotoxicity, C9; assay type: cell-based; conditions: C9, 24 hours incubation
# Source text: as §1, §2, §3
# [5] = test system: HUVEC (Human Umbilical Vein Endothelial (Cell)); assay: MTT cytotoxicity, HUVEC; assay type: cell-based; conditions: 24 hours incubation
# Source text: as §1, §2, §3
# [6] = test system: B16-F10 (Murine skin malignant melanoma); assay: MTT cytotoxicity, B16-F10; assay type: cell-based; conditions: B16-F10, 24 hours incubation
# Source text: as §1, §2, §4, §3
# [7] = test system: A549 (Human non-small cell lung cancer cell); assay: MTT cytotoxicity, A549; assay type: cell-based; conditions: A549, 24 hours incubation
# Source text: as §1, §2, §4, §3
# [8] = test system: A375 (human malignant melanoma); assay: MTT cytotoxicity, A375; assay type: cell-based; conditions: A375, 24 hours incubation
# Source text: as §1, §2, §3
# Panc02 = assay: MTT cytotoxicity, Panc02; assay type: cell-based, murine; conditions: Panc02, 24 hours incubation
# Source text: as §1, §2, §4, §3
# HFW (Human fibroblast) = assay: MTT cytotoxicity, HFW; assay type: cell-based; conditions: 24 hours incubation
# Source text: as §1, §2, §4, §3
# [9] = test system: NCI-N87 (Human gastric carcinoma); assay: MTT cytotoxicity, NCI-N87; assay type: cell-based; conditions: NCI-N87, 24 hours incubation
# Source text: as §1, §2, §3
# [10] = test system: Hepa I-6 (Murine hepatocellular carcinoma); assay: MTT cytotoxicity, Hepa 1-6; assay type: cell-based; conditions: Hepa I-6, 24 hours incubation
# Source text: as §1, §2, §4, §3
# [11] = test system: EO771 (Murine mammary adenocarcinoma); assay: MTT cytotoxicity, EO771; assay type: cell-based; conditions: EO771, 24 hours incubation
# Source text: as §1, §2, §4, §3
# [12] = test system: OECM-1 (Human oral cancer cell); assay: MTT cytotoxicity, OECM-1; assay type: cell-based; conditions: OECM-1, 24 hours incubation
# Source text: as §1, §2, §3
# [13] = test system: PC9 (Human non-small cell lung cancer cell); assay: MTT cytotoxicity, PC9; assay type: cell-based; conditions: PC9, 24 hours incubation
# Source text: as §1, §2, §4, §3
# [14] = test system: HCT-15 (Human colorectal cancer); assay: MTT cytotoxicity, HCT-15; assay type: cell-based; conditions: HCT-15, 24 hours incubation
# Source text: as §1, §2, §3
# [15] = Peptide stability in serum; assay type: in vitro ADME; conditions: 25% (vol/vol) bovine calf serum
# Description: Since this kind of peptide is highly toxic, the hope is that the peptide can be decomposed after inducing cancer cells to release danger-associated molecular patterns (DAMPs), and will not stay in the body for too long. After exposure to 25% (vol/vol) bovine calf serum, the residues of peptides were analyzed by liquid chromatography, and the stability at different time points was calculated.
# [16] = read-out: Serum stability (residual peptide)
Molecule,pIC50 [1],pIC50 (RBC (Human blood cell)),pIC50 [2],pIC50 [3],pIC50 [4],pIC50 [5],pIC50 [6],pIC50 [7],pIC50 [8],pIC50 (Panc02),pIC50 (HFW (Human fibroblast)),pIC50 [9],pIC50 [10],pIC50 [11],pIC50 [12],pIC50 [13],pIC50 [14],Serum stability (residual peptide) ([15]; 0 hr) [%],"remaining at 0.5 h [15, 16] [%]","remaining at 2 h [15, 16] [%]",also measured
"CC(C)C[C@H](NC(=O)[C@H](Cc1ccc2ccccc2c1)NC(=O)[C@H](CCCCN)NC(=O)[C@H](CC(C)C)NC(=O)[C@H](Cc1c[nH]c2ccccc12)NC(=O)[C@H](CCCCN)NC(=O)[C@H](CC(C)C)NC(=O)[C@H](Cc1c[nH]c2ccccc12)NC(=O)[C@H](CCCNC(=N)N)NC(=O)[C@H](CCCNC(=N)N)NC(=O)[C@H](CCCCN)NC(=O)[C@H](CCCCN)NC(=O)[C@H](CCCCN)NC(=O)[C@@H](N)CCCCN)C(=O)N[C@@H](CCCCN)C(=O)N[C@@H](CCCCN)C(N)=O [SEQ ID NO: 6, KKKK-RR-WLK-WLK-Nal-LKK-NH2] (HELM PEPTIDE1{K.K.K.K.R.R.W.L.K.W.L.K.[O=C([C@H](Cc1ccc2ccccc2c1)N[*:1])[*:2]].L.K.K.[am]}$$$$V2.0; N-terminus assumed)",4.85,4.45,4.81,5.25,4.90,5.16,4.98,5.15,4.97,5.06,5.14,5.03,5.07,5.00,4.78,5.47,5.10,,,,
"CC(C)C[C@H](NC(=O)[C@H](Cc1ccc2ccccc2c1)NC(=O)[C@H](CCCCN)NC(=O)[C@H](CC(C)C)NC(=O)[C@H](Cc1c[nH]c2ccccc12)NC(=O)[C@H](CCCCN)NC(=O)[C@H](CCCNC(=N)N)NC(=O)[C@H](Cc1c[nH]c2ccccc12)NC(=O)[C@H](CCCCN)NC(=O)[C@H](CCCCN)NC(=O)[C@H](CCCNC(=N)N)NC(=O)[C@H](CCCNC(=N)N)NC(=O)[C@H](CCCCN)NC(=O)[C@H](CCCCN)NC(=O)[C@H](CCCCN)NC(=O)[C@@H](N)CCCCN)C(=O)N[C@@H](C)C(=O)N[C@@H](CCCCN)C(=O)N[C@@H](CCCCN)C(N)=O [SEQ ID NO: 8, KKKK-RR-KK-WRK-WLK-Nal-LA-KK-NH2] (HELM PEPTIDE1{K.K.K.K.R.R.K.K.W.R.K.W.L.K.[O=C([C@H](Cc1ccc2ccccc2c1)N[*:1])[*:2]].L.A.K.K.[am]}$$$$V2.0; N-terminus assumed)",5.09,4.42,5.40,5.46,5.28,5.25,5.01,5.64,5.44,5.57,5.14,5.50,5.44,5.48,5.22,5.80,5.50,100.00,105,106,"remaining at 1 h ([15]; 1 hr, read-out: Serum stability (residual peptide)): 77.4%; remaining at 4 h [15, 16]: 70.4%; remaining at 6 h [15, 16]: 71.3%; remaining at 8 h [15, 16]: 66.5%"
"KKKKKKKKWRKWLKWLAKK-NH2 [SEQ ID NO: 1, KKKK-KK-KK-WRK-WLK-WLA-KK-NH2]",4.87,4.28,4.83,4.84,4.68,5.03,4.72,5.14,4.98,4.87,4.79,4.77,4.88,4.78,4.73,5.07,4.91,,,,
"KKKKRRKKWLKWLKWLKKK-NH2 [SEQ ID NO: 4, KKKK-RR-KK-WLK-WLK-WLK-KK-NH2]",4.83,4.23,4.73,4.88,4.78,5.33,4.79,5.05,5.00,4.80,4.69,4.82,4.98,4.86,4.74,5.10,4.97,,,,
"KKKKRRKKWRKWLKWLAKK-NH2 [SEQ ID NO: 7, KKKK-RR-KK-WRK-WLK-WLA-KK-NH2]",4.92,4.30,5.12,5.24,5.04,5.40,4.82,5.48,5.40,4.97,4.92,5.21,5.31,5.21,4.99,5.53,5.15,100.00,101,72.1,"Serum stability (residual peptide) ([15]; 1 hr): 123.30%; remaining at 4 h [15, 16]: 59.5%; remaining at 6 h [15, 16]: 54.4%; remaining at 8 h [15, 16]: 44.4%; metabolised at 8 h ([15]; after eight hours, read-out: Decrease of peptide in serum): ~56%; metabolised at 4 h ([15]; at the fourth hour, read-out: Decrease of peptide in serum): ~40%"

# From patent US20250250298A1, “ONCOLYTIC PEPTIDE AND USE THEREOF” (Rise Biopharmaceuticals Inc., priority 2022, published 2025)
